Reference: patent publication US20230399319A1, “Acylsulfamide Compound and Pharmaceutical Use Therefor” (Japan Tobacco Inc., priority 2019, published 2023)
Like-named read-outs stand apart in the source and are kept apart here. One block for each molecule: values may come before it.

Molecular target: NLRP3 inflammasome (Homo sapiens (Human), UniProt Q96P20)
Assay: Evaluation of NLRP3 inflammasome inhibitory activity (inhibition of IL-1β production in THP1-Null cells, LPS/Nigericin)
[1] = inhibition of IL-1β production in THP1-Null cells
[2] = IL-1β production in THP1-Null cells, PMA/LPS primed, Nigericin 7.5 μmol/L

Sequence of NLRP3 inflammasome (Q96P20 whole entry): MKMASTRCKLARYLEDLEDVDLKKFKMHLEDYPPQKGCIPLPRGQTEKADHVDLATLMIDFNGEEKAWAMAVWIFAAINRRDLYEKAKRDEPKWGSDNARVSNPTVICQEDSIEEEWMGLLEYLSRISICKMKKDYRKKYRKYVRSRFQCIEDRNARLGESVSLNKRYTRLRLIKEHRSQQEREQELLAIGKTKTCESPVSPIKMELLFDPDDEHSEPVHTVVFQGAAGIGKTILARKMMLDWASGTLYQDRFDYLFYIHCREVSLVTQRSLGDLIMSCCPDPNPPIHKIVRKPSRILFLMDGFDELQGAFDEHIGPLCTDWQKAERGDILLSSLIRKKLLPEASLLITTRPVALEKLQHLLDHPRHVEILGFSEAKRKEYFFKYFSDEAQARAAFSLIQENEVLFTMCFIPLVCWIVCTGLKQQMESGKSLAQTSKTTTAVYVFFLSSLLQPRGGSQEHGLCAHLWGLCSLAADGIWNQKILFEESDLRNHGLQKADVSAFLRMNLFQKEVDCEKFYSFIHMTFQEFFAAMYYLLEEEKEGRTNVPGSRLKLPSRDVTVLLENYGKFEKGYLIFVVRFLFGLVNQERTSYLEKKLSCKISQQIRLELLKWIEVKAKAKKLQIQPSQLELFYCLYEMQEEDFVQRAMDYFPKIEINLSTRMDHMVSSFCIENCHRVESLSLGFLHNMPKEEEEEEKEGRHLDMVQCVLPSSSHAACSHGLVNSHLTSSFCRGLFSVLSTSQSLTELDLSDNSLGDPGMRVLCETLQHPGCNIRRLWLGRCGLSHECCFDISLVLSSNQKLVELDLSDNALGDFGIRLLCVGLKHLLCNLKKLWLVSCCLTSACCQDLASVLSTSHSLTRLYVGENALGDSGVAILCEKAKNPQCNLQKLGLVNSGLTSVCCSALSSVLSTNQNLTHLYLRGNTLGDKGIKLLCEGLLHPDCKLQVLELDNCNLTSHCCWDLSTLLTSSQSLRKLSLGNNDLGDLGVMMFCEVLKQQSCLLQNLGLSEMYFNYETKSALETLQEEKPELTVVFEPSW

SMILES: CN(C1CCOC1)S(=O)(=O)NC(=O)c1cnc(Nc2c3c(cc4c2CCC4)CCC3)o1 (racemic) [Example 24]
IC50: 160 nM

SMILES: O=C(NS(=O)(=O)N1CCCC1)c1coc(Nc2c3c(cc4c2CCC4)CCC3)n1 [Example 22]
IC50 [2]: < 30 nM

SMILES: O=C(NS(=O)(=O)N1CCCC1)c1cnc(Nc2c3c(cc4c2CCC4)CCC3)o1 [Example 6]
IC50 [2]: < 30 nM

SMILES: O=C(NS(=O)(=O)N1CC2CCC(C1)O2)c1coc(Nc2c3c(c(F)c4c2CCC4)CCC3)n1 [Example 59]
IC50 [2]: 44 nM

SMILES: O=C(NS(=O)(=O)NCc1ccccc1)c1cnc(Nc2c3c(cc4c2CCC4)CCC3)o1 [Example 8]
IC50 [2]: 440 nM

SMILES: CN(C)S(=O)(=O)C1CCN(S(=O)(=O)NC(=O)c2coc(Nc3c4c(c(F)c5c3CCC5)CCC4)n2)CC1 [Example 66]
IC50 [2]: < 30 nM

SMILES: O=C(NS(=O)(=O)N1CCCC1)c1coc(Nc2c3c(c(Cl)c4c2CCC4)CCC3)n1 [Example 34]
IC50 [2]: 48 nM

SMILES: CN(C)S(=O)(=O)NC(=O)c1coc(Nc2c3c(c(Cl)c4c2CCC4)CCC3)n1 [Example 28]
IC50 [2]: 120 nM

SMILES: COC(=O)C1COCCN1S(=O)(=O)NC(=O)c1coc(Nc2c3c(c(Cl)c4c2CCC4)CCC3)n1 (racemic) [Example 72]
IC50: 310 nM

SMILES: Cc1ccc(C(F)(F)F)cc1Nc1nc(C(=O)NS(=O)(=O)N2CCC(S(=O)(=O)N(C)C)CC2)co1 [Example 75]
IC50 [2]: 32 nM

Second part, the molecule after the results:

IC50 [1]: 490 nM
SMILES: Cc1ccc2c(c1Nc1nc(C(=O)NS(=O)(=O)N(C)C)cs1)CCC2 [Example 2-083]

IC50 [1]: 140 nM
SMILES: Cc1ccc(C(F)(F)F)cc1Nc1nc(C(=O)NS(=O)(=O)N2CCCC(c3ncccn3)[C@@H](C)C2)co1 (some centres unmarked) [Example 2-312]

IC50: 87 nM
SMILES: Cc1cc(C)n(C2CCCN(S(=O)(=O)NC(=O)c3coc(Nc4cc(C(F)(F)F)ccc4C)n3)CC2)n1 (racemic) [Example 2-297]

IC50: 45 nM
SMILES: CCS(=O)(=O)N1CCCN(S(=O)(=O)NC(=O)c2coc(Nc3cc(C(F)(F)F)ccc3C)n2)CC1C (racemic) [Example 2-242]

IC50 [1]: 28 nM
SMILES: CCCS(=O)(=O)N1CCCN(S(=O)(=O)NC(=O)c2coc(Nc3cc(C)ccc3C)n2)CC1 [Example 2-228]

IC50 [1]: 250 nM
SMILES: CC(C)c1ccc(C(F)(F)F)nc1Nc1nc(C(=O)NS(=O)(=O)N2CCCOCC2)co1 [Example 2-125]

IC50 [1]: 420 nM
SMILES: Cc1cn(C(C)C)nc1Nc1nc(C(=O)NS(=O)(=O)N2CCCOCC2)co1 [Example 2-147]

inhibition at 3 µM (read-out: % inhibition at 3 μM): -1.6%
SMILES: O=C(NS(=O)(=O)N1CCCOCC1)c1coc(Nc2cc(C(F)(F)F)ccc2Cl)n1 [Example 2-136]

IC50 [1]: 67 nM
SMILES: Cc1ccc(CC(F)(F)F)cc1Nc1nc(C(=O)NS(=O)(=O)N2CCCOCC2)co1 [Example 2-063]

IC50 [1]: 150 nM
SMILES: CC(=O)NC1CCN(S(=O)(=O)NC(=O)c2coc(Nc3cc(C(F)(F)F)ccc3C)n2)CC1 [Example 2-033]

IC50 [1]: 38 nM
SMILES: Cc1ccc(C(F)(F)F)cc1Nc1nc(C(=O)NS(=O)(=O)N2CCOC(C#N)CC2)co1 (centres unmarked) [Example 2-264]

IC50 [1]: 18000 nM
SMILES: CC(C)c1ccc(C(F)(F)F)c(Nc2nc(C(=O)NS(=O)(=O)N3CCCOCC3)co2)c1 [Example 2-176]

IC50 [1]: 39 nM
SMILES: COC(=O)N1CCCN(S(=O)(=O)NC(=O)c2coc(Nc3cc(C(F)(F)F)ccc3C)n2)CC1 [Example 2-101]

IC50 [1]: 41 nM
SMILES: Cc1ccc(C(F)(F)F)cc1Nc1nc(C(=O)NS(=O)(=O)N2CCCN(c3nccc(C(C)C)n3)CC2)co1 [Example 2-186]

IC50: 94 nM
SMILES: Cc1ccc(C(C)C)cc1Nc1nc(C(=O)NS(=O)(=O)N2CCOCC2C)co1 (racemic) [Example 2-081]

IC50 [1]: 400 nM
SMILES: CC(C)c1ccc(OC(F)(F)F)c(Nc2nc(C(=O)NS(=O)(=O)N3CCCOCC3)co2)c1 [Example 2-175]

IC50: 67 nM
SMILES: CCN(C)C(=O)C1CCCN(S(=O)(=O)NC(=O)c2coc(Nc3cc(C(F)(F)F)ccc3C)n2)CC1 (racemic) [Example 2-246]

IC50 [1]: 26 nM
SMILES: CCS(=O)(=O)N1CCCN(S(=O)(=O)NC(=O)c2coc(Nc3cc(C(F)(F)F)ccc3C)n2)CC1 [Example 2-064]

IC50 [1]: 61 nM
SMILES: CCCC(=O)N1CCCN(S(=O)(=O)NC(=O)c2coc(Nc3cc(C(F)(F)F)ccc3C)n2)CC1 [Example 2-215]
